Experimental data from ChEMBL document CHEMBL5724696, “Autophagy assay results for EUbOPEN Chemogenomics Library” (2024).

Tests used:
[1] = system: U2OS; assay: (§1) Here: values are normalized to the positive (DMSO; basel flux = defined as 100% suppression) and negative (250nM Torin1; mTOR inhibitor; maximal inducer of autophagy defined as 0% suppression) control compounds and represented as % of ER-phagy suppression. […] The impact of autophagy induction on cells is complex and depends on the affected target. […] Of note, treatment concentrations may be sub-optimal for specific compounds, leading to false negative annotations.; type: functional, Homo sapiens; settings: Compound Concentration 1 uM, Culturing Media DMEM, 1 % Penicillin/Streptomycin, 10% Fetal bovin serum Add-On: blasticidin, Screening Media Control DMEM, 10% Fetal bovin serum Add-On: 1 µg/ml Doxycyclin, Screening Media Samples DMEM, 10% Fetal bovin serum Add-On: 1 µg/ml Doxycyclin 250nM Torin1
[2] = system: U2OS; assay: as §1; type: functional, Homo sapiens; settings: Compound Concentration 1 uM, Culturing Media DMEM, 1 % Penicillin/Streptomycin, 10% Fetal bovin serum Add-On: blasticidin, Screening Media Control DMEM, 10% Fetal bovin serum Add-On: 1 µg/ml Doxycyclin, Screening Media Samples DMEM, 10% Fetal bovin serum Add-On: 1 µg/ml Doxycyclin 250nM Torin1; remark: listed apart in the source

Compound | ER-phagy suppression ([1]; Timepoint 12 hours) [%] | ER-phagy suppression ([1]; Timepoint 24 hours) [%] | ER-phagy suppression ([1]; Timepoint 36 hours) [%] | ER-phagy suppression ([1]; Timepoint 60 hours) [%] | ER-phagy suppression ([2]; Timepoint 12 hours) [%] | ER-phagy suppression ([2]; Timepoint 24 hours) [%] | ER-phagy suppression ([2]; Timepoint 36 hours) [%] | ER-phagy suppression ([2]; Timepoint 54 hours) [%]
CN1CCC(COc2cnc(-c3cccc(Cn4nc(-c5cccc(C#N)c5)ccc4=O)c3)nc2)CC1 [TEPOTINIB] | -9.035 | 9.179 | 17.9604 | 23.3369 | 4.664 | -2.8541 | -6.061 | -17.192
Cc1cnc(-c2cc(Cl)ccc2F)cc1-n1c(=O)n(CC(N)=O)c2cnccc21 [TP-008] | -1.571 | -13.0499 | -21.2168 | -35.4053 | -24.3103 | -37.6592 | -45.8786 | -56.4398
CN1C(=O)[C@@H](N2CCc3cn(Cc4ccccc4)nc3C2=O)COc2ccccc21 [TP-030-1] | -22.1461 | -11.0455 | -18.8351 | -24.8138 | -1.154 | -18.125 | -30.7242 | -23.6126
CN1C(=O)[C@@H](N2CCc3c(nn(Cc4ccccc4)c3Br)C2=O)COc2ccccc21 [TP-030-2] | -11.1908 | -12.0413 | -22.9996 | -25.2811 | 7.634 | -14.2706 | -10.5345 | -6.796
CC(=O)Nc1cccc(-n2c(=O)n(C3CC3)c(=O)c3c(Nc4ccc(I)cc4F)n(C)c(=O)c(C)c32)c1 [TRAMETINIB] | 22.5636 | 31.8836 | 34.8635 | 24.7233 | -5.637 | 10.9132 | 18.5776 | 29.3457
CNC(=O)c1ccccc1Nc1cc(Nc2ccc(N3CCOCC3)cc2OC)ncc1C(F)(F)F [VS-4718] | 7.822 | -10.4532 | -8.464 | -16.508 | 14.2845 | -7.017 | -5.515 | 11.4938
NC(=O)c1ccc(N(C(N)=O)c2c(F)cccc2F)nc1-c1ccc(F)cc1F [VX-702] | 31.8026 | 34.6886 | 33.7769 | 30.7144 | 0.2881 | -13.3426 | -11.8024 | 0.1703
